Measured values as given in the NIST ThermoML archive (doi:10.1016/j.jct.2005.05.018).
Values joined by “and” are separate entries in the source; they are usually repeats but may differ in a detail not shown here. Identical values can stand only once.

Conditions: Liquid, Closed cell (Static) method

C[CH2][Sb]([CH2]C)[CH2]C [triethylstibine]
Conditions | vapor or sublimation pressure
238.42 K | 0.0037 kPa
243.46 K | 0.00611 kPa and 0.0061 kPa
248.47 K | 0.00991 kPa and 0.00989 kPa and 0.0099 kPa
253.48 K | 0.01569 kPa
258.48 K | 0.02451 kPa and 0.02448 kPa and 0.02449 kPa
263.48 K | 0.03735 kPa and 0.03734 kPa and 0.03733 kPa
268.48 K | 0.0557 kPa and 0.05561 kPa and 0.0556 kPa
273.68 K | 0.08268 kPa [middle of 4 runs]
278.49 K | 0.1181 kPa and 0.118 kPa
283.49 K | 0.1676 kPa
285.99 K | 0.1995 kPa
288.49 K | 0.2362 kPa and 0.2363 kPa
290.99 K | 0.2791 kPa and 0.279 kPa
293.49 K | 0.3288 kPa and 0.3282 kPa and 0.3281 kPa
295.99 K | 0.3849 kPa and 0.385 kPa
298.49 K | 0.4505 kPa and 0.4504 kPa and 0.4503 kPa
301 K | 0.5246 kPa
